In article PMC5602100, “Retro analog concept: comparative study on physico-chemical and biological properties of selected antimicrobial peptides” (Amino Acids, 2017):
Ends that are not written are not given here.

Assays:
[1] = system: human red blood cells (RBCs); assay: Hemolysis assay; assay type: cell-based; settings: fresh human RBCs 4% (v/v) in PBS, 60 min at 37 °C, absorbance 540 nm, 100% control 1% Triton-X 100, triplicate
Description: The hemolysis assay was conducted according to the procedure described previously in the literature (Avrahami and Shai [2004]). Fresh human red blood cells (RBCs) with EDTA as anticoagulant were rinsed three times with a phosphate-buffer saline (PBS) by centrifugation at 800×g for 10 min and resuspended in PBS. Serial dilution of peptides (1–512 µg/mL) was conducted in PBS on 96-well plates. Then the stock solution of RBCs was added to reach a final volume of 100 µL with a 4% concentration of erythrocytes (v/v). The control wells for 0 and 100% hemolysis consisted of RBCs suspended in PBS and 1% of Triton-X 100, respectively. Subsequently, the plates were incubated for 60 min at 37 °C and then centrifuged at 800×g for 10 min at 4 °C (Sorvall ST 16R Centrifuge, Thermo Scientific). After centrifugation the supernatant was carefully […] to new microtiter plates and the release of hemoglobin was monitored by measurement of absorbance at 540 nm (Multiskan™ GO Microplate Spectrophotometer, Thermo Scientific). All experiments were conducted in triplicate.

[2] = system: S. aureus ATCC 25923; settings: ATCC 25923, 18 h
Description: (§1) The minimal inhibitory concentrations (MICs) for bacteria and fungi were determined by the broth microdilution method according to the Clinical and Laboratory Standards Institute (CLSI) protocol (Clinical and Laboratory Standards Institute (CLSI) [2002], [2012]). For this purpose, the initial inoculums of bacteria (5 × 10^5 CFU/mL) in Mueller–Hinton Broth (Biocorp, Warsaw, Poland) were exposed to the ranging concentrations of compounds (0.125–256 µg/mL) and incubated for 18 h at 37 °C. In case of fungi, the initial inoculums of 2 × 10^3 CFU/mL in RPMI-1640 (Sigma-Aldrich, Steinheim, Germany) were exposed to the ranging concentrations of compounds (0.5–256 µg/mL) and incubated for 24 h at 37 °C. The experiments were conducted on 96-well microtiter plates, with the final volume of 100 µL. Cell densities were adjusted spectrophotometrically (Multiskan™ GO Microplate Spectrophotometer, Thermo Scientific) at the wavelengths of 600 nm for bacteria and 530 nm for fungi. The MIC was taken as the lowest drug concentration at which a noticeable growth of microorganisms was inhibited. Reference strains of bacteria: Escherichia coli ATCC 25922, E. coli ATCC 23506, Enterococcus faecalis PCM 2673, Klebsiella pneumoniae ATCC 700603, Pseudomonas aeruginosa ATCC 9027, Staphylococcus aureus ATCC 25923, S. aureus 9144, Streptococcus pneumoniae ATCC 49619, and fungi: Aspergillus niger ATCC 16404, Candida albicans ATCC 10231, and C. glabrata ATCC 15126 were obtained from Polish Collection of Microorganisms (PCM, Polish Academy of Sciences, Wroclaw, Poland) and from American Type Culture Collection (ATCC). All experiments were conducted in triplicate.

[3] = system: K. pneumoniae ATCC 700603; settings: broth microdilution (CLSI), 5 × 10^5 CFU/mL in Mueller–Hinton Broth, 0.125–256 µg/mL, 18 h at 37 °C, triplicate
Description: as §1

[4] = system: C. glabrata ATCC 15126; settings: broth microdilution (CLSI), 2 × 10^3 CFU/mL in RPMI-1640, 0.5–256 µg/mL, 24 h at 37 °C, triplicate
Description: as §1

[5] = system: P. aeruginosa ATCC 9027; settings: ATCC 9027, 18 h
Description: as §1

[6] = system: C. albicans ATCC 10231; settings: broth microdilution (CLSI), 2 × 10^3 CFU/mL in RPMI-1640, 0.5–256 µg/mL, 24 h at 37 °C, triplicate
Description: as §1

[7] = system: E. coli ATCC 23506; settings: ATCC 23506, 18 h
Description: as §1

[8] = system: A. niger ATCC 16404; settings: broth microdilution (CLSI), 2 × 10^3 CFU/mL in RPMI-1640, 0.5–256 µg/mL, 24 h at 37 °C, triplicate
Description: as §1

[9] = system: E. coli ATCC 25922; settings: ATCC 25922, 18 h
Description: as §1

[10] = system: E. faecalis PCM 2673; settings: PCM 2673, 18 h
Description: as §1

[11] = system: S. aureus ATCC 9144; settings: ATCC 9144, 18 h
Description: as §1

[12] = system: S. pneumoniae ATCC 49619; settings: ATCC 49619, 18 h
Description: as §1

GLFDIIKKIAESF-NH2 [aurein 1.2]
rate of hemolysis at MIC concentrations [1]: lower than 10% | MIC, S. aureus ATCC 25923 [2]: 128 µg/mL | MIC, K. pneumoniae ATCC 700603 [3]: 16 µg/mL | MIC, C. glabrata ATCC 15126 [4]: 128 µg/mL | MIC, P. aeruginosa ATCC 9027 [5]: 256 µg/mL | MIC, C. albicans ATCC 10231 [6]: 128 µg/mL | MIC, E. coli ATCC 23506 [7]: 128 µg/mL | MIC, A. niger ATCC 16404 [8]: 64 µg/mL | MIC, E. coli ATCC 25922 [9]: 128 µg/mL | MIC, E. faecalis PCM 2673 [10]: 64 µg/mL | MIC, S. aureus ATCC 9144 [11]: 128 µg/mL | MIC, S. pneumoniae ATCC 49619 [12]: 64 µg/mL
